Measured values: US7462617B2, “Substituted acylpiperazine derivatives” (Hoffmann-La Roche Inc., priority 2003, dated 2008)

Molecular target: T1, mGlyT-1b (Mus musculus, UniProt P28571)
T1 construct: host or cells: Flp-in-CHO
T1 sequence (P28571 1-651 isoform P28571-2): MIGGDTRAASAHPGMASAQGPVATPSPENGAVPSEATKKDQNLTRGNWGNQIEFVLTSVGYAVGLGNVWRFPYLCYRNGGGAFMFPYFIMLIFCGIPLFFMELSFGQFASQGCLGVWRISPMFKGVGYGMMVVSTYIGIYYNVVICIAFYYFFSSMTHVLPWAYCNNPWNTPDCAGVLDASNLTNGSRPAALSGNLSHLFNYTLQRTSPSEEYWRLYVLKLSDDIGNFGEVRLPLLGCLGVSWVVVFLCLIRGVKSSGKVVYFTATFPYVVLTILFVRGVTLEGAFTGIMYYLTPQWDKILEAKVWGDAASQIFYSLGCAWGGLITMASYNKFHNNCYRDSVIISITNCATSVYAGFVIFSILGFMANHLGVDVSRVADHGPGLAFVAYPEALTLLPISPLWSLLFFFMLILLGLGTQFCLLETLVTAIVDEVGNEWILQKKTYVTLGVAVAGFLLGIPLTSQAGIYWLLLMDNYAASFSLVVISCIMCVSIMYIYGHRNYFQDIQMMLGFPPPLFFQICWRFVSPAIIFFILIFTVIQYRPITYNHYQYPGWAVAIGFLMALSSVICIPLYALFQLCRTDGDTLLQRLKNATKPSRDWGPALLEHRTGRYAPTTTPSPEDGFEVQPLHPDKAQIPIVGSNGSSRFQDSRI
Test: Glycine Uptake Inhibition Assay (mGlyT-1b)
Assay type: cell-based
Settings: [3H]-glycine uptake in Flp-in-CHO cells stably transfected with mGlyT1b cDNA; 20 min preincubation at 22° C.; read-out: IC50 (μM) at GlyT-1
Method: DMEM complete medium: Nutrient mixture F-12 (Gibco Life-technologies), fetal bovine serum (FBS) 5%, (Gibco life technologies), Penicillin/Streptomycin 1% (Gibco life technologies), Hygromycin 0.6 mg/ml (Gibco life technologies), Glutamine 1 mM Gibco life technologies)
Uptake buffer (UB): 150 mM NaCl, 10 mM Hepes-Tris, pH 7.4, 1 mM CaCl2, 2.5 mM KCl, 2.5 mM MgSO4, 10 mM (+) D-glucose. Flp-in™-CHO (Invitrogen Cat n^o R758-07)cells stably transfected with mGlyT1b cDNA.
Glycine Uptake Inhibition Assay (mGlyT-1b)
On day 1 mammalian cells, (Flp-in™-CHO), transfected with mGlyT-1b cDNA, were plated at the density of 40,000 cells/well in complete F-12 medium, without hygromycin in 96-well culture plates. On day 2 ,the medium was aspirated, and the cells were washed twice with uptake buffer (UB). The cells were then incubated for 20 min at 22° C. with either (i) no potential competitor, (ii) 10 mM non-radioactive glycine, (iii) a concentration of a potential inhibitor. A range of concentrations of the potential inhibitor was used to generate data for calculating the concentration of inhibitor resulting in 50% of the effect (e.g. IC50, the concentration of the competitor inhibiting glycine uptake of 50%). A solution was then immediately added containing [^3H]-glycine 60 nM (11-16 Ci/mmol) and 25 μM non-radioactive glycine. The plates were incubated with gentle shaking, and the reaction was stopped by aspiration of the mixture and washing (three times) with ice-cold UB. The cells were lysed with scintillation liquid, shaken 3 hours, and the radioactivity in the cells was counted using a scintillation counter.
`CC(=O)c1ccc(N2CCN(C(=O)c3cc([N+](=O)[O-])ccc3-c3ccccc3)CC2)c(F)c1` [Example 15, 1-{3-Fluoro-4-[4-(4-nitro-biphenyl-2-carbonyl)-piperazin-1-yl]-phenyl}-ethanone] gave an IC50 of 0.023 µM. For `CC(=O)c1ccc(N2CCN(C(=O)c3cc([N+](=O)[O-])ccc3C3CC3)CC2)c(F)c1` [Example 16, 1-{4-[4-(2-Cyclopropyl-5-nitro-benzoyl)-piperazin-1-yl]-3-fluoro-phenyl}-ethanone], the IC50 was 0.026 µM. `COC(=O)c1ccc([N+](=O)[O-])cc1C(=O)N1CCN(c2ccc(C(C)=O)cc2F)CC1` [Example 43, 2-[4-(4-Acetyl-2-fluoro-phenyl)-piperazine-1-carbonyl]-4-nitro-benzoic acid methyl ester] gave an IC50 of 0.032 µM. For `CS(=O)(=O)c1ccc(-c2cccs2)c(C(=O)N2CCN(c3ccc(C(F)(F)F)cc3)CC2)c1` [Example 52, (5-Methanesulfonyl-2-thiophen-2-yl-phenyl)-[4-(4-trifluoromethyl-phenyl)-piperazin-1-yl]-methanone], the IC50 was 0.033 µM. With `CS(=O)(=O)c1ccc(-c2ccsc2)c(C(=O)N2CCN(c3ccc(C(F)(F)F)cc3)CC2)c1` [Example 53, (5-Methanesulfonyl-2-thiophen-3-yl-phenyl)-[4-(4-trifluoromethyl-phenyl)-piperazin-1-yl]-methanone] the IC50 was 0.006 µM. Work on `Cc1ccc(-c2ccc(S(C)(=O)=O)cc2C(=O)N2CCN(c3ccc(C(F)(F)F)cc3)CC2)s1` [Example 55, [5-Methanesulfonyl-2-(5-methyl-thiophen-2-yl)-phenyl]-[4-(4-trifluoromethyl-phenyl)-piperazin-1-yl]-methanone] yielded an IC50 of 0.039 µM. `CS(=O)(=O)c1ccc(-c2ccncc2)c(C(=O)N2CCN(c3ccc(C(F)(F)F)cc3)CC2)c1` [Example 59, (5-Methanesulfonyl-2-pyridin-4-yl-phenyl)-[4-(4-trifluoromethyl-phenyl)-piperazin-1-yl]-methanone] showed an IC50 of 0.033 µM. `CS(=O)(=O)c1ccc(C2=CCOCC2)c(C(=O)N2CCN(c3ccc(C(F)(F)F)cc3)CC2)c1` [Example 60, [2-(3,6-Dihydro-2H-pyran-4-yl)-5-methanesulfonyl-phenyl]-[4-(4-trifluoromethyl-phenyl)-piperazin-1-yl]-methanone] showed an IC50 of 0.019 µM. `CS(=O)(=O)c1ccc(-c2ccccc2)c(C(=O)N2CCN(c3ccc(C(F)(F)F)cc3F)CC2)c1` [Example 62, [4-(2-Fluoro-4-trifluoromethyl-phenyl)-piperazin-1-yl]-(4-methanesulfonyl-biphenyl-2-yl)-methanone] gave an IC50 of 0.019 µM. `CS(=O)(=O)c1ccc(-c2ccc(F)cc2)c(C(=O)N2CCN(c3ccc(C(F)(F)F)cc3F)CC2)c1` [Example 63, (4′-Fluoro-4-methanesulfonyl-biphenyl-2-yl)-[4-(2-fluoro-4-trifluoromethyl-phenyl)-piperazin-1-yl]-methanone] showed an IC50 of 0.01 µM. `CC(=O)c1ccc(N2CCN(C(=O)c3cc(S(C)(=O)=O)ccc3C3=CCCCC3)CC2)c(F)c1` [Example 68, 1-{4-[4-(2-Cyclohex-1-enyl-5-methanesulfonyl-benzoyl)-piperazin-1-yl]-3-fluoro-phenyl}-ethanone] showed an IC50 of 0.007 µM. With `CCc1ccc(N2CCN(C(=O)c3cc(S(C)(=O)=O)ccc3C3CCCCC3)CC2)c(F)c1` [Example 69, (2-Cyclohexyl-5-methanesulfonyl-phenyl)-[4-(4-ethyl-2-fluoro-phenyl)-piperazin-1-yl]-methanone] the IC50 was 0.031 µM. `CC(=O)c1ccc(N2CCN(C(=O)c3cc(S(C)(=O)=O)ccc3C3=CCCC3)CC2)c(F)c1` [Example 71, 1-{4-[4-(2-Cyclopent-1-enyl-5-methanesulfonyl-benzoyl)-piperazin-1-yl]-3-fluoro-phenyl}-ethanone] gave an IC50 of 0.013 µM. Compound `CC(=O)c1ccc(N2CCN(C(=O)c3cc(S(C)(=O)=O)ccc3C3=CCOCC3)CC2)c(F)c1` [Example 72, 1-(4-{4-[2-(3,6-Dihydro-2H-pyran-4-yl)-5-methanesulfonyl-benzoyl]-piperazin-1-yl}-3-fluoro-phenyl)-ethanone] has an IC50 of 0.021 µM. Compound `CC(=O)c1ccc(N2CCN(C(=O)c3cc(S(C)(=O)=O)ccc3C3=CCCCCC3)CC2)c(F)c1` [Example 73, 1-{4-[4-(2-Cyclohept-1-enyl-5-methanesulfonyl-benzoyl)-piperazin-1-yl]-3-fluoro-phenyl}-ethanone] has an IC50 of 0.013 µM. With `CS(=O)(=O)c1ccc(C2=CCCCCC2)c(C(=O)N2CCN(c3ccc(C(F)(F)F)cc3)CC2)c1` [Example 75, (2-Cyclohept-1-enyl-5-methanesulfonyl-phenyl)-[4-(4-trifluoromethyl-phenyl)-piperazin-1-yl]-methanone] the IC50 was 0.014 µM. In the case of `CNS(=O)(=O)c1ccc(-c2ccccc2)c(C(=O)N2CCN(c3ccc(C(F)(F)F)cc3)CC2)c1` [Example 76, 2-[4-(4-Trifluoromethyl-phenyl)-piperazine-1-carbonyl]-biphenyl-4-sulfonic acid methylamide], the IC50 is reported as 0.012 µM. `CS(=O)(=O)c1ccc(C2=CCCCC2)c(C(=O)N2CCN(c3ccc(C(F)(F)F)cc3)CC2)c1` [Example 77, (2-Cyclohex-1-enyl-5-methanesulfonyl-phenyl)-[4-(4-trifluoromethyl-phenyl)-piperazin-1-yl]-methanone] showed an IC50 of 0.011 µM. With `CS(=O)(=O)c1ccc(C2CCCC2)c(C(=O)N2CCN(c3ccc(C(F)(F)F)cc3)CC2)c1` [Example 79, (2-Cyclopentyl-5-methanesulfonyl-phenyl)-[4-(4-trifluoromethyl-phenyl)-piperazin-1-yl]-methanone] the IC50 was 0.008 µM. Work on `CS(=O)(=O)c1ccc(C2=CCOCC2)c(C(=O)N2CCN(c3ccc(C(F)(F)F)cc3F)CC2)c1` [Example 91, [2-(3,6-Dihydro-2H-pyran-4-yl)-5-methanesulfonyl-phenyl]-[4-(2-fluoro-4-trifluoromethyl-phenyl)-piperazin-1-yl]-methanone] yielded an IC50 of 0.022 µM. In the case of `CS(=O)(=O)c1ccc(-c2ccccc2F)c(C(=O)N2CCN(c3ncc(C(F)(F)F)cc3Cl)CC2)c1` [Example 111, [4-(3-Chloro-5-trifluoromethyl-pyridin-2-yl)-piperazin-1-yl]-(2′-fluoro-4-methanesulfonyl-biphenyl-2-yl)-methanone], the IC50 is reported as 0.038 µM. `CS(=O)(=O)c1ccc(-c2ccccc2)c(C(=O)N2CCN(c3ncc(C(F)(F)F)cc3Cl)CC2)c1` [Example 114, [4-(3-Chloro-5-trifluoromethyl-pyridin-2-yl)-piperazin-1-yl]-(4-methanesulfonyl-biphenyl-2-yl)-methanone] showed an IC50 of 0.035 µM. In the case of `CS(=O)(=O)c1ccc(-c2ccccc2F)c(C(=O)N2CCN(c3ccc(C#N)cc3F)CC2)c1` [Example 126, 3-Fluoro-4-[4-(2′-fluoro-4-methane-sulfonyl-biphenyl-2-carbonyl)-piperazin-1-yl]-benzonitrile], the IC50 is reported as 0.039 µM. Compound `CC(=O)c1ccc(N2CCN(C(=O)c3cc(S(C)(=O)=O)ccc3-c3ccsc3)CC2)cc1` [Example 127, 1-{4-[4-(5-Methanesulfonyl-2-thiophen-3-yl-benzoyl)-piperazin-1-yl]-phenyl}-ethanone] has an IC50 of 0.036 µM.

System: not given
Test: not given
Settings: not given
For `CC(=O)c1ccc(N2CCN(C(=O)c3c(Cl)ccc([N+](=O)[O-])c3Cl)CC2)c(F)c1` [Example 12, 1-{4-[4-(2,6-Dichloro-3-nitro-benzoyl)-piperazin-1-yl]-3-fluoro-phenyl}-ethanone], the melting point was 209 to 211 °C. With `COC(=O)c1ccc([N+](=O)[O-])cc1C(=O)N1CCN(c2ccc(C(C)=O)cc2F)CC1` [Example 43, 2-[4-(4-Acetyl-2-fluoro-phenyl)-piperazine-1-carbonyl]-4-nitro-benzoic acid methyl ester] the melting point was 189 to 191 °C.
